Values after ≈ are worked out from the molar mass of the structure shown. Like-named read-outs stand apart in the source and are kept apart here.
Key:
[1] = test system: M. abscessus Bamboo; experiment: Caseum surrogate MBC90 (cMBC90) kill assay; type: cell-based, Mycobacterium abscessus; details: for cMBC90/bMBC90: 5-day assays; for MBC: Mycobacteroides abscessus, 120 h, read-out: cMBC90
Text: (§1) The surrogate matrix was generated as described previously from cultured THP-1 cells (ATCC TIB-202) (mBio, 2023, 14, e0059823). M. abscessus exponential cultures grown in Middlebrook 7H9 broth (Sigma Aldrich) (OD600 0.6-0.9) were spun down and resuspended in water to an OD600 of 7, 0.7, and 0.07. As described for the M. tuberculosis caseum surrogate assay (mnBio, 2023, 14, e0059823), the bacterial suspensions (at three different dilutions resulting in ˜10^9, 10^8, and 10^7 starting CFU/mL, represented by circle, square, and triangle indicators respectively) were added to the caseum surrogate in the ratio 2:1 (vol/wt), briefly homogenized with 1.4-mm zirconia beads, divided evenly into nine 1.5-mL microcentrifuge tubes, and incubated as standing cultures at 37° C. At the indicated time points, tubes were removed and used for CFU enumeration by plating on Middlebrook 7H11 agar (Sigma Aldrich). Separate tubes were used at each time point. To determine the kill curves, cultures with a starting CFU/mL of 10^8 were used (resulting in the middle curve with square indicators). Arrows indicate the time points when drugs were added and the end of the treatment. The experiment was repeated three times independently, yielding similar results. A representative example is shown. Dots and error bars represent means and standard deviations of three technical replicates, respectively.
FIGS. 29A-29M show the Dose-response kill curves against M. abscessus Bamboo in caseum surrogate. M. abscessus cultures were set up as described in the legend of FIG. 28. Bacterial cell suspensions were added to yield a starting CFU of 10^8/mL (FIG. 28, middle growth curve with square indicators). […] The shaded areas indicate drug concentration windows achieved in caseum in vivo. (Antimicrob. Agents Chemother., 2021, 65, e0050621; Antimicrob. Agents Chemother., 2022, 66, e0221221; PLoS Med., 2019, 16, e1002773; ACS Infect. Dis., 2016, 2, 251-267). The experiment was repeated twice independently, yielding similar results. A representative example is shown. Dots and error bars represent means and standard deviations of three technical replicates, respectively. Horizontal dotted lines indicate the cutoff for 1 log reduction in CFU compared to 10-day drug-free control culture. The cMBC90 values shown in Table 16 are the drug concentrations that reduce CFU by 90% relative to the CFU of drug-free controls at day 10. Since the cultures were in the stationary phase on day 5 when drug treatment started, the CFUs of the drug-free cultures at day 10 were similar to the CFUs of the drug-free cultures at day 5 (FIG. 28).
as §1, with “(doi: 10.1128/mbio.00598-23).” for “(mBio, 2023, 14, e0059823).”, “(doi: 10.1128/mbio.00598-23),” for “(mnBio, 2023, 14, e0059823),”, “CFU/mL)” for “CFU/mL, represented by circle, square, and triangle indicators respectively)”, “curves for the drugs,” for “curves,”, “used.” for “used (resulting in the middle curve with square indicators). Arrows indicate the time points when drugs were added and the end of the treatment.”, “results.” for “results. A representative example is shown. Dots and error bars represent means and standard deviations of three technical replicates, respectively.”
The experiment was repeated twice independently, yielding similar results. A representative example is shown. The cMBC90 values shown in Table 16 are the drug concentrations that reduce CFU by 90% relative to the CFU of drug-free controls at day 10. […]

[2] = test system: M. abscessus Bamboo; experiment: Broth MBC90 (bMBC90); type: cell-based, Mycobacterium abscessus; details: Mycobacteroides abscessus, 120 h; broth, 5 days
Text: Broth MIC, broth MBC90 (bMBC90), and caseum surrogate MBC90 ([…]) of clinically used antibiotics and of novel ADP-ribosylation-resistant rifabutin analogs against M. abscessus Bamboo have been evaluated.

[3] = test system: M. abscessus Bamboo; experiment: MIC assay, clinical isolate Bamboo; type: cell-based, Mycobacterium abscessus; details: Mycobacteroides abscessus
[4] = test system: M. abscessus ATCC 19977; experiment: MIC assay in 96-well plate format, wild-type strain; type: cell-based, Mycobacterium abscessus; details: for MICWT: Table 10; for MIC: read-out: WT Mab MIC
In short: (§2)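 Two-fold, ten-point dilutions in 7H9 with 2% DMSO; mid-log culture diluted to OD600=0.1 (1×10^7 CFU/mL). Incubated 3 days at 37 °C, shaking 110 RPM; growth = Day 3 minus Day 0 OD600, expressed as percentage of drug-free growth and plotted against concentration. Two biological replicates.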

[5] = test system: Δarr M. abscessus; experiment: MIC assay, isogenic arr-deleted strain; type: cell-based, Mycobacterium abscessus; details: Table 10
In short: as §2

[6] = test system: Mycobacterium abscessus; experiment: MIC against Mycobacterium abscessus (strain not given); type: cell-based
[7] = test system: CYP3A4
[8] = Plasma protein binding assay (rapid equilibrium dialysis); type: in vitro ADME
In short: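 Plasma was spiked to 10,000 ng/mL compound and dialysed against PBS by rapid equilibrium dialysis for 4 h at 37° C with shaking at 300 RPM. Plasma and buffer aliquots were matrix-matched 1:1 […] and quantified by LC-MS/MS.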

[9] = Mouse pharmacokinetics studies; type: in vivo, CD-1 mice; details: for AUCp.o.: po
In short: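 Plasma from K2EDTA-collected blood analysed by LC-MS/MS with multiple-reaction monitoring in electrospray positive mode. Parameters derived by non-compartmental analysis.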

[10] = Mycobacteroides abscessus, 72 h, Table 22, read-out: MICMab
[11] = Mycobacteroides abscessus, ATCC19977, Table 15, heterocyclic aromatic carbamates

COc1c(N2C[C@@H]3CCCN[C@@H]3C2)c(F)cc2c(=O)c(C(=O)O)cn(C3CC3)c12 [Moxifloxacin, moxifloxacin]
cMBC90/bMBC90 [1]: 4
MBC [1]: 8 µM (≈ 3.21 µg/mL)
MBC [2]: 2 µM (≈ 0.803 µg/mL)
MIC ([3]; broth, M. abscessus Bamboo, Table 16, read-out: MIC): 6 µM (≈ 2.41 µg/mL)

CN(C)c1cc(NC(=O)CNC(C)(C)C)c(O)c2c1C[C@H]1C[C@H]3[C@H](N(C)C)C(O)=C(C(N)=O)C(=O)[C@@]3(O)C(O)=C1C2=O [Tigecycline, tigecycline]
cMBC90/bMBC90 [1]: 1
MBC [1]: 8 µM (≈ 4.69 µg/mL)
MBC [2]: 8 µM (≈ 4.69 µg/mL)
MIC [3]: 12.5 µM (≈ 7.32 µg/mL)

CO[C@H]1/C=C/O[C@@]2(C)Oc3c(C)c(O)c4c(c3C2=O)C2=NC3(CCN(CC(C)C)CC3)NC2=C(NC(=O)/C(C)=C/C=C/[C@H](C)[C@H](O)[C@@H](C)[C@@H](O)[C@@H](C)[C@H](OC(=O)c2ccccc2)[C@@H]1C)C4=O [UMN7]
MICWT [4]: 0.053 µM
MICΔorr [5]: 0.059 µM
MIC [6, 10]: 0.053 µM (≈ 0.0482 µg/mL)
CYP3A4 gene fold-induction at 10 μM ([7]; human, 10 μM): 8.6
fraction unbound at 4 h, 10000 ng/mL ([8]; plasma): 0.0003

CO[C@H]1/C=C/O[C@@]2(C)Oc3c(C)c(O)c4c(c3C2=O)C2=NC3(CCN(CC(C)C)CC3)NC2=C(NC(=O)/C(C)=C/C=C/[C@H](C)[C@H](O)[C@@H](C)[C@@H](O)[C@@H](C)[C@H](OC(=O)NC2CCN(Cc3ccccc3)CC2)[C@@H]1C)C4=O [UMN15]
MICWT [4]: 0.013 µM
MIC ([4]; Table 14, carbamate analogs): 0.013 µM (≈ 0.0133 µg/mL)
ƒAUC/MIC ([9]; Table 18): 0.8
CL ([9]; mouse, in vivo): 6.40 mL/min/kg
F ([9]; mouse, in vivo): 35%
Vd ([9]; mouse, in vivo): 5.92 L/kg
AUCp.o. ([9]; mouse, in vivo): 5658 ng·h/mL
MICΔorr [5]: 0.028 µM
MIC ([6]; Table 22, read-out: MICMab): 0.013 µM (≈ 0.0133 µg/mL)
CYP3A4 gene fold-induction at 10 μM [7]: 1.2
ƒu [8]: 0.2%
plasma unbound fraction ([8]; plasma): 0.19%

CO[C@H]1/C=C/O[C@@]2(C)Oc3c(C)c(O)c4c(c3C2=O)C2=NC3(CCN(CC(C)C)CC3)NC2=C(NC(=O)/C(C)=C/C=C/[C@H](C)[C@H](O)[C@@H](C)[C@@H](O)[C@@H](C)[C@H](OC(=O)NC2CC(C)(C)NC(C)(C)C2)[C@@H]1C)C4=O [UMN32]
MIC ([4]; Mycobacteroides abscessus, ATCC19977, Table 14, carbamate analogs): 0.04 µM (≈ 0.0395 µg/mL)
MICWT [4]: 0.04 µM
MICΔorr [5]: 0.09 µM
MIC [6, 10]: 0.04 µM (≈ 0.0395 µg/mL)
CYP3A4 gene fold-induction at 10 μM ([7]; human, 10 μM): 0.6
ƒu ([8]; 4 h, 10000 ng/mL): 6.7%
fraction unbound at 4 h, 10000 ng/mL ([8]; plasma): 0.067

CO[C@H]1/C=C/O[C@@]2(C)Oc3c(C)c(O)c4c(c3C2=O)C2=NC3(CCN(CC(C)C)CC3)NC2=C(NC(=O)/C(C)=C/C=C/[C@H](C)[C@H](O)[C@@H](C)[C@@H](O)[C@@H](C)[C@H](OC(=O)Nc2cnccn2)[C@@H]1C)C4=O [UMN120]
MIC ([4]; Table 15, heterocyclic aromatic carbamates): 0.028 µM (≈ 0.0259 µg/mL)
F ([9]; mouse, in vivo): 73%
ƒAUC/MIC ([9]; mouse, in vivo): 88.8
AUCp.o. ([9]; mouse, in vivo): 55072 ng·h/mL
MIC ([6]; Table 22, read-out: MICMab): 0.028 µM (≈ 0.0259 µg/mL)
MIC ([6]; against Mycobacterium abscessus, Table 19, read-out: MIC): 0.028 µM (≈ 0.0259 µg/mL)
CYP3A4 gene fold-induction at 10 μM [7]: 0.7
ƒu [8]: 4.2%
plasma unbound (ƒu, %) ([8]; plasma): 4.2%

CO[C@H]1/C=C/O[C@@]2(C)Oc3c(C)c(O)c4c(c3C2=O)C2=NC3(CCN(CC(C)C)CC3)NC2=C(NC(=O)/C(C)=C/C=C/[C@H](C)[C@H](O)[C@@H](C)[C@@H](O)[C@@H](C)[C@H](OC(=O)Nc2cscn2)[C@@H]1C)C4=O [UMN132]
MIC [4, 11]: 0.026 µM (≈ 0.0242 µg/mL)
MIC [6, 10]: 0.026 µM (≈ 0.0242 µg/mL)
CYP3A4 gene fold-induction at 10 μM ([7]; human, 10 μM): 1.4
ƒu ([8]; 4 h, 10000 ng/mL): 1.7%

CO[C@H]1/C=C/O[C@@]2(C)Oc3c(C)c(O)c4c(c3C2=O)C2=NC3(CCN(CC(C)C)CC3)NC2=C(NC(=O)/C(C)=C/C=C/[C@H](C)[C@H](O)[C@@H](C)[C@@H](O)[C@@H](C)[C@H](OC(=O)Nc2cncs2)[C@@H]1C)C4=O [UMN133]
MIC [4, 11]: 0.046 µM (≈ 0.0428 µg/mL)
MIC [6, 10]: 0.046 µM (≈ 0.0428 µg/mL)
CYP3A4 gene fold-induction at 10 μM ([7]; human, 10 μM): 1.7
ƒu ([8]; 4 h, 10000 ng/mL): 3.0%
